Laboratory results taken from patent publication US20250040539A1, “COMPOSITION COMPRISING AN ANTIMICROBIAL AGENT AND A CARBOXAMIDE” (BASF SE, priority 2021, published 2025).

Test system: fungal mix: Aspergillus brasiliensis DSM 1988, Rhodotorula mucilaginosa DSM 13621, Yarrowia lipolytica DSM 8218
Experiment: Preservative activity in a diluted non-ionic surfactant solution (1% Lutensol ON 70, pH 7.0) with 2-phenoxyethanol against fungal mix (Example 1.6)
Assay type: cell-based
Details: Surfactant solution + 0.81% PE, no amide (Comparative 2)
From the text: A surfactant solution in phosphate buffer of pH 7.0 containing 1% by weight of Lutensol ON 70, a C10-fatty alcohol ethoxylated with 7EO, was used.
The samples were contaminated with a fungal mix consisting of: • Aspergillus brasiliensis DSM 1988 • Rhodotorula mucilaginosa DSM 13621 • Yarrowia lipolytica DSM 8218
The samples were inoculated with the fungal mix at day 0 and 7 to obtain 1-3×10E+05 CFU/ml inoculation in the test sample consisting of the above-defined surfactant solution and stored at 25° C. for 14 days. CFU was determined before re-inoculation at day 7, and on day 14.
Any CFU value at d7 and d14 obtained with a surfactant solution sample of the invention containing 2-phenoxyethanol and amide (surfactant solution+0.81% PE+0.09% of amide) lower than the respective value of the “comparative 2” example (surfactant solution+0.81% by weight of 2-phenoxyethanol) indicates a better performance of the inventive combination of 2-phenoxyethanol with the amide.

OCCOc1ccccc1 [PE, 2-phenoxyethanol, reference compound]
d7 [CFU/ml] (day 7): 16,500 CFU/ml | d14 [CFU/ml] (day 14): 45,00 CFU/ml
